Reference: patent US10934298B2, “Substituted pyrazolo[1,5-a]pyrimidines for the treatment of medical disorders” (BIAL—BioTech Investments, Inc., priority 2016, dated 2021)

Target: T1, glucocerebrosidase (Gcase) (Homo sapiens, UniProt P04062)
T1 construct: micellar solution containing 10 nM GCase and 100 nM saposin C
T1 sequence (P04062 40-536): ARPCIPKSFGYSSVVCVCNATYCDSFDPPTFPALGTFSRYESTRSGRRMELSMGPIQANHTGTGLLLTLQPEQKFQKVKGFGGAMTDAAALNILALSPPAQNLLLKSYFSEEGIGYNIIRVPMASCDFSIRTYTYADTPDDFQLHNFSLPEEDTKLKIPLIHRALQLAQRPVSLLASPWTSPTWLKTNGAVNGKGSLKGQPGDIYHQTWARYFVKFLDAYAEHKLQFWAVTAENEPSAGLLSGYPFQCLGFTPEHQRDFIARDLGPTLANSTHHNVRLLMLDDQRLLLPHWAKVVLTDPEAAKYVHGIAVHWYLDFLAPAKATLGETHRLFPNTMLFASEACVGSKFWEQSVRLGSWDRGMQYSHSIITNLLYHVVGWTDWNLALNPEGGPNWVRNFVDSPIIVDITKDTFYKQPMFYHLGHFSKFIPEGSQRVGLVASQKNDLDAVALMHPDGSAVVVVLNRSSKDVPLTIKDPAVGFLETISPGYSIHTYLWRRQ
Test: Glucocerebrosidase (Gcase) activation assay with 4-methylumbelliferyl-beta-D-glucopyranoside substrate, saposin C and phosphatidylserine/triton micelles, fluorescence readout
Format: biochemical
Summary of the method: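 Readout is endpoint fluorescence (ex 365, em 440 nm) after glycine pH 12.5 stop of a 15-min room-temperature reaction. Enzyme mix: GCase 10 nM plus saposin C 100 nM in 0.37 mol % PS/0.32 mM triton micelles, pH 4.7, compound pre-incubated 30 min; substrate solution 2 mM before 1:1 mixing. Tested at 1.0/0.1 μM, then 3-fold, 8-point series up to 5 μM.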

| Compound | Percent Gcase Activation, 0.1 μM Test Compound (test compound at 0.1 μM) | Percent Gcase Activation, 1 μM Test Compound (test compound at 1.0 μM) | Percent Gcase Activation, 0.1 μM Test Compound (0.1 μM test compound) | Percent Gcase Activation, 1 μM Test Compound (1 μM test compound) | other results |
| --- | --- | --- | --- | --- | --- |
| Cc1cc(-c2cncc(F)c2)nc2c(C(=O)N[C@H](C3CC3)C(F)(F)F)cnn12 [III-126] | *** (greater than 20% Gcase activation) | +++ (Gcase activation greater than 60%) |  |  |  |
| Cc1cc(-c2ccns2)nc2c(C(=O)NC(C)C(F)(F)F)cnn12 (centres unmarked) [III-178] | ** (Gcase activation in the range of 10% up to 20%) | +++ (Gcase activation greater than 60%) |  |  |  |
| Cc1cc(-c2ccnnc2)nc2c(C(=O)NC(C3CC3)C(F)(F)F)cnn12 (centres unmarked) [III-325] |  |  | * (less than 10% Gcase activation) | + (less than 30% Gcase activation) |  |
| Cc1coc(-c2cc(C)n3ncc(C(=O)NC(C4CC4)C(F)(F)F)c3n2)n1 (centres unmarked) [III-254] | *** (greater than 20% Gcase activation) | +++ (Gcase activation greater than 60%) |  |  |  |
| Cc1cc(-c2ccc3ocnc3c2)nc2c(C(=O)N[C@@H](C)C(F)(F)F)cnn12 [III-168] | *** (greater than 20% Gcase activation) | +++ (Gcase activation greater than 60%) |  |  |  |
| C#CC(C)(C)NC(=O)c1cnn2c(C)cc(-c3cccc(OC)c3)nc12 [III-69] |  |  |  |  | Percent Gcase Activation, 0.1 μM Test Compound (0.1 μM test compound, Table 3A): *** (greater than 20% Gcase activation); Percent Gcase Activation, 1 μM Test Compound (1 μM test compound, Table 3A): +++ (Gcase activation greater than 60%) |
| Cc1ncc(-c2cc(C)n3ncc(C(=O)NC(C)(C)C4CC4)c3n2)o1 [III-252] | * (less than 10% Gcase activation) | +++ (Gcase activation greater than 60%) |  |  |  |
| Cc1cc(-c2cccc(F)c2)nc2c(C(=O)N[C@H](C)C(F)(F)F)cnn12 [III-361] |  |  | *** (greater than 20% Gcase activation) | +++ (Gcase activation greater than 60%) |  |
| Cc1cc(-c2cccnc2F)nc2c(C(=O)NC(C3CC3)C(F)(F)F)cnn12 (centres unmarked) [III-85] |  |  |  |  | Percent Gcase Activation, 0.1 μM Test Compound (0.1 μM test compound, Table 3A): *** (greater than 20% Gcase activation); Percent Gcase Activation, 1 μM Test Compound (1 μM test compound, Table 3A): +++ (Gcase activation greater than 60%) |
| Cc1cc(-c2ccc3ncn(C)c3c2)nc2c(C(=O)NC(C3CC3)C(F)(F)F)cnn12 (centres unmarked) [III-304] |  |  | ** (Gcase activation in the range of 10% up to 20%) | +++ (Gcase activation greater than 60%) |  |
| Cc1cc(-c2cccnc2)nc2c(C(=O)NC(C(C)C)C(F)(F)F)cnn12 (centres unmarked) [III-41] |  |  |  |  | Percent Gcase Activation, 0.1 μM Test Compound (0.1 μM test compound, Table 3A): ** (Gcase activation in the range of 10% up to 20%); Percent Gcase Activation, 1 μM Test Compound (1 μM test compound, Table 3A): +++ (Gcase activation greater than 60%) |
| Cc1cc(-c2ccc(F)cc2)nc2c(C(=O)N[C@@H](C)C(F)(F)F)cnn12 [III-360] |  |  | *** (greater than 20% Gcase activation) | +++ (Gcase activation greater than 60%) |  |
| Cc1cc(-c2sccc2C#N)nc2c(C(=O)N[C@H](C)C3CC3)cnn12 [III-302] |  |  | *** (greater than 20% Gcase activation) | +++ (Gcase activation greater than 60%) |  |
| Cc1cc(N2CCCC(F)(F)C2)nc2c(C(=O)NC(C3CC3)C(F)(F)F)cnn12 (centres unmarked) [III-66] |  |  |  |  | Percent Gcase Activation, 0.1 μM Test Compound (0.1 μM test compound, Table 3A): *** (greater than 20% Gcase activation); Percent Gcase Activation, 1 μM Test Compound (1 μM test compound, Table 3A): +++ (Gcase activation greater than 60%) |
| COc1cccc(-c2cc(C)n3ncc(C(=O)NC(C)C(F)(F)F)c3n2)c1 (centres unmarked) [III-55] |  |  |  |  | Percent Gcase Activation, 0.1 μM Test Compound (0.1 μM test compound, Table 3A): *** (greater than 20% Gcase activation); Percent Gcase Activation, 1 μM Test Compound (1 μM test compound, Table 3A): +++ (Gcase activation greater than 60%) |
| Cc1cc(N2CCCC(F)(F)C2)nc2c(C(=O)NC(C)C(F)(F)F)cnn12 (centres unmarked) [III-179] | *** (greater than 20% Gcase activation) | +++ (Gcase activation greater than 60%) |  |  |  |
| Cc1cc(-c2cccc(-c3ncccn3)c2)nc2c(C(=O)NC(C3CC3)C(F)(F)F)cnn12 (centres unmarked) [III-417] |  |  | *** (greater than 20% Gcase activation) | +++ (Gcase activation greater than 60%) |  |
| Cc1cc(-c2cccnc2)n2ncc(C(=O)N[C@@H](C)C3CC3)c2n1 [III-27] |  |  |  |  | Percent Gcase Activation, 0.1 μM Test Compound (0.1 μM test compound, Table 3A): * (less than 10% Gcase activation); Percent Gcase Activation, 1 μM Test Compound (1 μM test compound, Table 3A): + (less than 30% Gcase activation) |
| Cc1cc(-c2ccc(F)cc2)nc2c(C(=O)NC(C3CC3)C(F)(F)F)cnn12 (centres unmarked) [III-163] | *** (greater than 20% Gcase activation) | +++ (Gcase activation greater than 60%) |  |  |  |

| Compound | Percent Gcase Activation, 0.1 μM Test Compound (test compound at 0.1 μM) | Percent Gcase Activation, 1 μM Test Compound (test compound at 1.0 μM) | Percent Gcase Activation, 0.1 μM Test Compound (0.1 μM test compound) | Percent Gcase Activation, 1 μM Test Compound (1 μM test compound) | other results |
| --- | --- | --- | --- | --- | --- |
| Cc1cc(-c2cncc(Cl)c2)nc2c(C(=O)NC(C)C(F)(F)F)cnn12 (centres unmarked) [III-200] | *** (greater than 20% Gcase activation) | +++ (Gcase activation greater than 60%) |  |  |  |
| CCOc1cccc(-c2cc(C)n3ncc(C(=O)NC(C)C(F)(F)F)c3n2)c1 (centres unmarked) [III-76] |  |  |  |  | Percent Gcase Activation, 0.1 μM Test Compound (0.1 μM test compound, Table 3A): *** (greater than 20% Gcase activation); Percent Gcase Activation, 1 μM Test Compound (1 μM test compound, Table 3A): +++ (Gcase activation greater than 60%) |
| COc1cncc(-c2cc(C)n3ncc(C(=O)NC(C)C(F)(F)F)c3n2)c1 (centres unmarked) [III-270] | ** (Gcase activation in the range of 10% up to 20%) | +++ (Gcase activation greater than 60%) |  |  |  |
| Cc1cc(-c2cnccc2C(F)(F)F)nc2c(C(=O)NC(C)C(F)(F)F)cnn12 (centres unmarked) [III-284] |  |  | ** (Gcase activation in the range of 10% up to 20%) | +++ (Gcase activation greater than 60%) |  |
| CCc1cc(-c2ccccn2)n2ncc(C(=O)NC(C)C(F)(F)F)c2n1 (centres unmarked) [III-51] |  |  |  |  | Percent Gcase Activation, 0.1 μM Test Compound (0.1 μM test compound, Table 3A): * (less than 10% Gcase activation); Percent Gcase Activation, 1 μM Test Compound (1 μM test compound, Table 3A): + (less than 30% Gcase activation) |
| Cc1ccc(-c2cc(C)n3ncc(C(=O)NC(C)C(F)(F)F)c3n2)cn1 (centres unmarked) [III-283] |  |  | * (less than 10% Gcase activation) | ++ (Gcase activation in the range of 30% up to 60%) |  |
| Cc1cc(-c2cccc(C(=O)N(C)C)c2)nc2c(C(=O)NC(C3CC3)C(F)(F)F)cnn12 (centres unmarked) [III-413] |  |  | * (less than 10% Gcase activation) | +++ (Gcase activation greater than 60%) |  |
| Cc1cc(-c2cccnc2C#N)nc2c(C(=O)N[C@@H](C3CC3)C(F)(F)F)cnn12 [III-366] |  |  | *** (greater than 20% Gcase activation) | +++ (Gcase activation greater than 60%) |  |
| Cc1cc(-c2cccc(Cl)n2)nc2c(C(=O)N[C@@H](C)C(F)(F)F)cnn12 [III-236] | *** (greater than 20% Gcase activation) | +++ (Gcase activation greater than 60%) |  |  |  |
| Cc1cc(-c2cnccc2C(F)(F)F)nc2c(C(=O)N[C@H](C3CC3)C(F)(F)F)cnn12 [III-353] |  |  | *** (greater than 20% Gcase activation) | +++ (Gcase activation greater than 60%) |  |
| Cc1nc(-c2cc(C)n3ncc(C(=O)N[C@H](C)C(F)(F)F)c3n2)oc1C [III-345] |  |  | ** (Gcase activation in the range of 10% up to 20%) | +++ (Gcase activation greater than 60%) |  |
| Cc1cc(-c2ccc(F)o2)nc2c(C(=O)NC(C3CC3)C(F)(F)F)cnn12 (centres unmarked) [III-264] | *** (greater than 20% Gcase activation) | +++ (Gcase activation greater than 60%) |  |  |  |
| Cc1ccc(-c2cc(C)n3ncc(C(=O)N[C@H](C4CC4)C(F)(F)F)c3n2)cn1 [III-279] | ** (Gcase activation in the range of 10% up to 20%) | +++ (Gcase activation greater than 60%) |  |  |  |
| Cc1cc(N2C[C@H](c3ccccc3)OC2=O)nc2c(C(=O)NC(C3CC3)C(F)(F)F)cnn12 (some centres unmarked) [III-314] |  |  | *** (greater than 20% Gcase activation) | +++ (Gcase activation greater than 60%) |  |
| Cc1cc(-c2cccc(-c3ncc[nH]3)c2)nc2c(C(=O)NC(C3CC3)C(F)(F)F)cnn12 (centres unmarked) [III-102] | * (less than 10% Gcase activation) | + (less than 30% Gcase activation) |  |  |  |
| Cc1cc(-c2cc(F)cc(C#N)c2)nc2c(C(=O)N[C@@H](C)C3CC3)cnn12 [III-128] | *** (greater than 20% Gcase activation) | +++ (Gcase activation greater than 60%) |  |  |  |
| Cc1cc(C)n2ncc(C(=O)N[C@H](C3CC3)C(F)(F)F)c2n1 [III-10] |  |  |  |  | Percent Gcase Activation, 0.1 μM Test Compound (0.1 μM test compound, Table 3A): ** (Gcase activation in the range of 10% up to 20%); Percent Gcase Activation, 1 μM Test Compound (1 μM test compound, Table 3A): +++ (Gcase activation greater than 60%) |
| C#CC(C)(C)NC(=O)c1cnn2c(C)cc(-c3cccc(Cl)c3)nc12 [III-81] |  |  |  |  | Percent Gcase Activation, 0.1 μM Test Compound (0.1 μM test compound, Table 3A): *** (greater than 20% Gcase activation); Percent Gcase Activation, 1 μM Test Compound (1 μM test compound, Table 3A): +++ (Gcase activation greater than 60%) |
